# Assay results from the NIST ThermoML archive (doi:10.1016/j.fluid.2019.01.011).
# ± gives the expanded uncertainty stated by the source.
# Conditions: Crystal; DSC
row,Triple point temperature [K],Structure (SMILES)
1,918 ± 10,[Cl-].[Cs+] [cesium chloride]
2,587 ± 10,[Cl-].[Cl-].[Zn+2] [zinc chloride]
